According to patent US12084430B2, “Tricyclic urea compounds as JAK2 V617F inhibitors” (Incyte Corporation, priority 2022, dated 2024):
Like-named read-outs stand apart in the source and are kept apart here.

Assays:
[1] = molecular target: T1, catalytic domain (JH1, amino acids 826-1132) of human JAK2 (Homo sapiens, UniProt O60674); assay: JAK2 LanthaScreen JH1 binding assay; settings: read-out: JH1 Bind IC50
T1 construct: catalytic domain (JH1, amino acids 826-1132) of human JAK2; FLAG (N); biotin (biotinylated); purchased Carna Biosciences 08-445-20N; host or cells: baculovirus expression system
T1 sequence (O60674 826-1132): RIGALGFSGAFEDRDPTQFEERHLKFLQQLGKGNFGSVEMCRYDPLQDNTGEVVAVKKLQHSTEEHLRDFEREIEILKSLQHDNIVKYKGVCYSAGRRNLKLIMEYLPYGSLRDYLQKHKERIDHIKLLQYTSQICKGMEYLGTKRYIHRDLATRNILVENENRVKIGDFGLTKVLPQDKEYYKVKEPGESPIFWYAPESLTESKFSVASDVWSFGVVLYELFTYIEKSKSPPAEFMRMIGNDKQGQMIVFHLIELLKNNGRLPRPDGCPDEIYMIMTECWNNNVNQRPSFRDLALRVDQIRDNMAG
Procedure: Example A. JAK2 LanthaScreen […] Binding Assay
JAK2 JH1 binding assay utilizes catalytic domain (JH1, amino acids 826-1132) of human JAK2 expressed as N-terminal FLAG-tagged, biotinylated protein in a baculovirus expression system (Carna Biosciences, Product #08-445-20N). The assay was conducted in black 384-well polystyrene plates in a final reaction volume of 20 μL. JAK2 JH1 (1.5 nM) was incubated with compounds (100 nL serially diluted in DMSO) in the presence of 50 nM fluorescent JAK2-JH1 tracer and 0.5 nM Streptavidin-Tb cryptate (Cisbio Part #610SATLB) in assay buffer (50 mM Tris, pH=7.5, 10 mM MgCl2, 0.01% Brij-35, 0.1% BSA, 1 mM EGTA, 5% Glycerol and 5 mM DTT). Non-specific binding was accessed in the presence of 2 mM ATP. After incubation for 2 hours at 25° C., LanthaScreen signals were read on a PHERAstar FS plate reader (BMG LABTECH). Data was analyzed with IDBS XLfit and GraphPad Prism 5.0 software using a four parameter dose response curve to determine IC50 for each compound.

KIT [2] = molecular target: KIT (Homo sapiens, UniProt P10721); assay: KIT enzymatic assay; type: biochemical; settings: 1 mM ATP
Chain of KIT (Homo sapiens, UniProt P10721) (P10721 26-976, species assumed): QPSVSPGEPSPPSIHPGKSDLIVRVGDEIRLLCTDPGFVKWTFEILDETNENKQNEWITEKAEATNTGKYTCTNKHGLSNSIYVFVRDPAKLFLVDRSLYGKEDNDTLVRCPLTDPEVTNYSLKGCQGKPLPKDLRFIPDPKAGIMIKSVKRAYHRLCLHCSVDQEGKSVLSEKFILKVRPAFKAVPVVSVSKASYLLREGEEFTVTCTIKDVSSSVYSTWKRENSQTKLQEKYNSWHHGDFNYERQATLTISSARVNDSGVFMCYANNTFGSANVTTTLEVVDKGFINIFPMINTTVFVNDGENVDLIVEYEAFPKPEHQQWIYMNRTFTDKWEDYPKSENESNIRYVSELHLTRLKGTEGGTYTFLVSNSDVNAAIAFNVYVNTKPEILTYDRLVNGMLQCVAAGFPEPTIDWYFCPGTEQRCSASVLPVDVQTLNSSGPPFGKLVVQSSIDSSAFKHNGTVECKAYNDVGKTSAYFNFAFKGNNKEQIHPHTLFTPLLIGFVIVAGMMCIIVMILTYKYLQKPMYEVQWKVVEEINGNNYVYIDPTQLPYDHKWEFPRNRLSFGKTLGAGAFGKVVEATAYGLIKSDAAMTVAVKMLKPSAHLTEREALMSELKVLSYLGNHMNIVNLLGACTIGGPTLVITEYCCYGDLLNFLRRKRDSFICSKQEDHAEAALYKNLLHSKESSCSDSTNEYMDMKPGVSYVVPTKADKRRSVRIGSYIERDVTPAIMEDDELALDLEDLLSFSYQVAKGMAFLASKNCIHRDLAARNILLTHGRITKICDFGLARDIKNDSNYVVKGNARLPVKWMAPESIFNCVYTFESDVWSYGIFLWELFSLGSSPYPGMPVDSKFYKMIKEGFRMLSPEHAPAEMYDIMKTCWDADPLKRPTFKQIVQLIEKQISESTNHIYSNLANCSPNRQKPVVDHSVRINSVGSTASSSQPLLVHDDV
Procedure: (§1) Example D. KIT Enzymatic Assay
(§2) The kinase assays were carried out at room temperature in assay buffer (HEPES 50 mM, pH 7.0, NaN3 0.02%, BSA 0.01%, Orthovanadate 0.1 mM, DTT 1 mM, MgCl2 10 mM) in a final volume of 10 μL. Testing compounds were prepared by serial dilution in DMSO and transferred to the plate wells by ECHO liquid handler (Labcyte) with 0.5% DMSO in the final assay. […]. Reactions were initiated by the addition of 5 μL ATP in assay buffer. The final 10 μL kinase reaction consists of 0.12 nM KIT, 1 mM ATP, 500 nM TK Substrate-biotin and SEB reagent 62.5 nM in assay buffer. […] The plates were then sealed and centrifuged at 1800 rpm for 2 minutes. After 60 minutes incubation at room temperature, the product activity was determined by measuring the fluorescence at 620 nm and 665 nm on Pherastar microplate reader (BMG Labtech). A ratio is calculated (665/620 nm) for each well. Wells with DMSO only were served as the positive controls and wells containing no ATP were used as negative controls. IC50 determination was performed by fitting the curve of percent control activity versus the log of the compound concentration using the GraphPad Prism 7.0 software.

KIT [3] = assay: KIT enzymatic assay; type: biochemical
Procedure: as §1, §2

FLT3 = FLT3 enzymatic assay; type: biochemical
Procedure: Example C. FLT3 Enzymatic Assay
as §2, with “0.011” for “0.12”, “FLT3,” for “KIT,”

[4] = tested on: pSTAT5 signaling in SET-2 cells in whole blood; assay: pSTAT5 SET-2 whole blood MSD assay; type: cell-based; settings: Homo sapiens, pSTAT5, 2 hour, read-out: SET2 WB IC50
Procedure: Example F. pSTAT5 SET-2 Whole Blood MSD Assay
SET-2 cells shipped from ABS, RPMI1640 medium, Fetal Bovine Serum from Gibco, Phospho-STAT5a,b Whole Cell Lysate Kit from Mesoscale, Retronectin (Recombinant Human Fibronectin Fragment) from TaKaRa, 96 well cell culture plate flat bottom from Corning, lysis buffer from Cell Signaling Technology, and sterile PBS from Gibco. Whole Blood from by BioIVT.
SET-2 cells were cultured in RPMI media with 20% FBS at 37° C. humidified incubator supplied with 5% CO2. On the day of the assay, 40 uL per well of diluted retronectin working solution was added to sterile 96-well clear flat bottom tissue culture plates (1:200 dilution of retronectin in sterile PBS) and incubated at 37 C for 1 hour. After 1 hour, the retronectin working solution was aspirated and SET-2 cells were seeded at 100,000/well in RPMI+20% FBS. Cells were incubated overnight at 37° C. and 5% CO2. The next day, the medium was removed and 40 μL of diluted compounds in serum-free RPMI and whole blood was added to the cells for a 2 hour incubation at 37° C. and 5% CO2. The compound starting concentration is 20 μM and 2.5 fold serial diluted down to 0.21 nM. The whole blood and compound mixture was then aspirated off using the BlueCat plate washer and washed 1× with PBS. Cells were lysed by adding 40 μL of 3× complete lysis buffer and shaken at room temperature for 45-60 minutes (complete lysis buffer consists of Cell Signaling Technology lysis buffer diluted to 3× and supplemented with Mesoscale's protease inhibitor, phosphatase I inhibitor, and phosphatase II inhibitor). The pSTAT5 MSD plates were blocked by adding 150 μL of Blocker A solution per well to the MSD plates and incubated at room temperature with shaking at 400 rpm for one hour or longer. After blocking, plates were washed 3× with 300 μL/well of IX Tris Wash Buffer. After lysis, added 25 μL per well of lysed sample was added to MSD plate and incubated with shaking at 4° C. wrapped in foil overnight. The next day, plates were washed again and 25 μL/well of diluted 1× Detection Antibody Solution, wrapped in foil, and incubated at room temperature with shaking at 400 rpm for 1 hour. Plates were then washed again and lastly, 150 μL/well of 1× Read Buffer T was added to all wells. Plates were analyzed on MSD Discovery within 5 minutes. […] Data analysis was performed in GraphPad Prism using a 4-parameter fit and data was reported as Average±SD.

[2H]C([2H])([2H])n1c(=O)n([C@@H]2CC[C@@H](NC(=O)OC)C2)c2c3c(-c4ccc5c(c4)COC5(C)C)c(-c4cn(CC(F)F)nc4F)[nH]c3ncc21 [Example 12, Methyl ((1R,3R)-3-(7-(1-(2,2-difluoroethyl)-3-fluoro-1H-pyrazol-4-yl)-8-(1,1-dimethyl-1,3-dihydroisobenzofuran-5-yl)-3-(methyl-d3)-2-oxo-3,6-dihydroimidazo[4,5-d]pyrrolo[2,3-b]pyridin-1(2H)-yl)cyclopentyl)carbamate]
IC50 ([1]; Table A): > 1000 nM | IC50 ([1]; Table C): > 1000 nM | IC50 (KIT [2]): > 2500 nM | Selectivity KIT/JH2 V617F (KIT [3]): ****** (selectivity of >12500-fold) | Selectivity FLT3/JH2 V617F (FLT3): ****** (selectivity of >12500-fold) | IC50 [4]: ≤ 2500 nM

[2H]C([2H])([2H])n1cc(-c2[nH]c3ncc4c(c3c2-c2ccc3c(cnn3CC(F)F)c2)n([C@@H]2CC[C@@H](NC(=O)OC)C2)c(=O)n4C([2H])([2H])[2H])c(F)n1 [Example 14, Methyl ((1R,3R)-3-(8-(1-(2,2-difluoroethyl)-1H-indazol-5-yl)-7-(3-fluoro-1-(methyl-d3)-1H-pyrazol-4-yl)-3-(methyl-d3)-2-oxo-3,6-dihydroimidazo[4,5-d]pyrrolo[2,3-b]pyridin-1(2H)-yl)cyclopentyl)carbamate]
IC50 ([1]; Table A): > 1000 nM | IC50 ([1]; Table C): > 1000 nM | IC50 (KIT [2]): 250 to 1250 nM | Selectivity KIT/JH2 V617F (KIT [3]): ***** (selectivity of >5000-fold to ≤12500-fold) | Selectivity FLT3/JH2 V617F (FLT3): ****** (selectivity of >12500-fold) | IC50 [4]: ≤ 2500 nM

[2H]C([2H])([2H])n1cc(-c2[nH]c3ncc4c(c3c2-c2ccc3c(c2)COC3(C)C)n([C@@H]2CC[C@@H](NC(=O)OC)C2)c(=O)n4C)c(F)n1 [Example 11, Methyl ((1R,3R)-3-(8-(1,1-dimethyl-1,3-dihydroisobenzofuran-5-yl)-7-(3-fluoro-1-(methyl-d3)-1H-pyrazol-4-yl)-3-methyl-2-oxo-3,6-dihydroimidazo[4,5-d]pyrrolo[2,3-b]pyridin-1(2H)-yl)cyclopentyl)carbamate]
IC50 ([1]; Table A): > 1000 nM | IC50 ([1]; Table C): > 1000 nM | IC50 (KIT [2]): > 2500 nM | Selectivity KIT/JH2 V617F (KIT [3]): ****** (selectivity of >12500-fold) | Selectivity FLT3/JH2 V617F (FLT3): ****** (selectivity of >12500-fold) | IC50 [4]: ≤ 2500 nM

[2H]C([2H])([2H])n1c(=O)n([C@@H]2CC[C@@H](NC(=O)OC)C2)c2c3c(-c4ccc5c(c4)COC5(C)C)c(-c4cn(CC)nc4F)[nH]c3ncc21 [Example 20, Methyl ((1R,3R)-3-(8-(1,1-dimethyl-1,3-dihydroisobenzofuran-5-yl)-7-(1-ethyl-3-fluoro-1H-pyrazol-4-yl)-3-(methyl-d3)-2-oxo-3,6-dihydroimidazo[4,5-d]pyrrolo[2,3-b]pyridin-1(2H)-yl)cyclopentyl)carbamate]
IC50 ([1]; Table A): > 1000 nM | IC50 ([1]; Table C): > 1000 nM | IC50 (KIT [2]): > 2500 nM | Selectivity KIT/JH2 V617F (KIT [3]): ****** (selectivity of >12500-fold) | Selectivity FLT3/JH2 V617F (FLT3): ****** (selectivity of >12500-fold) | IC50 [4]: ≤ 2500 nM

[2H]C([2H])([2H])n1cc(-c2[nH]c3ncc4c(c3c2-c2ccc3c(cnn3C([2H])([2H])[2H])c2)n([C@@H]2CC[C@@H](NC(=O)OC)C2)c(=O)n4C([2H])([2H])[2H])c(F)n1 [Example 6, Methyl ((1R,3R)-3-(7-(3-fluoro-1-(methyl-d3)-1H-pyrazol-4-yl)-3-(methyl-d3)-8-(1-(methyl-d3)-1H-indazol-5-yl)-2-oxo-3,6-dihydroimidazo[4,5-d]pyrrolo[2,3-b]pyridin-1(2H)-yl)cyclopentyl)carbamate]
IC50 ([1]; Table A): > 1000 nM | IC50 ([1]; Table C): > 1000 nM | IC50 (KIT [2]): 250 to 1250 nM | Selectivity KIT/JH2 V617F (KIT [3]): **** (selectivity of >1750-fold to ≤5000-fold) | Selectivity FLT3/JH2 V617F (FLT3): ***** (selectivity of >5000-fold to ≤12500-fold) | IC50 [4]: ≤ 2500 nM

COC(=O)N[C@@H]1CC[C@@H](n2c(=O)n(C)c3cnc4[nH]c(-c5cn(C)nc5OC)c(-c5ccccc5)c4c32)C1 [Example 2, Methyl ((1R,3R)-3-(7-(3-methoxy-1-methyl-1H-pyrazol-4-yl)-3-methyl-2-oxo-8-phenyl-3,6-dihydroimidazo[4,5-d]pyrrolo[2,3-b]pyridin-1(2H)-yl)cyclopentyl)carbamate]
IC50 ([1]; Table A): > 1000 nM | IC50 ([1]; Table C): > 1000 nM | IC50 (KIT [2]): > 2500 nM | Selectivity KIT/JH2 V617F (KIT [3]): **** (selectivity of >1750-fold to ≤5000-fold) | Selectivity FLT3/JH2 V617F (FLT3): **** (selectivity of >1750-fold to ≤5000-fold) | IC50 [4]: 2500 to 5000 nM

[2H]C([2H])([2H])n1cc(-c2[nH]c3ncc4c(c3c2-c2ccc(F)cc2)n([C@@H]2CC[C@@H](NC(=O)OC)C2)c(=O)n4C([2H])([2H])[2H])c(F)n1 [Example 7, Methyl ((1R,3R)-3-(7-(3-fluoro-1-(methyl-d3)-1H-pyrazol-4-yl)-8-(4-fluorophenyl)-3-(methyl-d3)-2-oxo-3,6-dihydroimidazo[4,5-d]pyrrolo[2,3-b]pyridin-1(2H)-yl)cyclopentyl)carbamate]
IC50 ([1]; Table A): > 1000 nM | IC50 ([1]; Table C): > 1000 nM | IC50 (KIT [2]): 250 to 1250 nM | Selectivity KIT/JH2 V617F (KIT [3]): ** (selectivity of >500-fold to ≤1500-fold) | Selectivity FLT3/JH2 V617F (FLT3): **** (selectivity of >1750-fold to ≤5000-fold) | IC50 [4]: 2500 to 5000 nM
